The results in this text go back to PubChem BioAssay (NCI).

Molecules are shown by their SMILES.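 Cells were grown in 96-well plates and exposed to each compound for 48 hours at five concentrations; endpoints were interpolated linearly between bracketing concentrations, or set to the highest concentration if not reached. GI50 = concentration required for 50% inhibition of growth. TGI: total growth inhibition.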 Some results are limits rather than exact numbers.

Assay in all cases: NCI anticancer screen, dose series, 48 h
Test [1] relates to MOLT-4 leukemia.
For test [2], the system named is A498 renal.
In test [3] the test system is TK-10 renal.
Test [4] concerns SK-MEL-5 melanoma.
Test [5] has as its system SN12C renal.
The test system of test [6] is IGROV1 ovarian.
Test [7] relates to SK-MEL-28 melanoma.
For test [8], the system named is HS 578T breast.
Test [9] relates to HOP-92 NSCLC.
In test [10] the test system is SW-620 colon.

For `COc1cc(C(=O)c2cc(C)c3[nH]c4ccc(O)cc4c3c2C)cc(OC)c1OC`, the GI50 in test [1] is 42.4 nM; in [2], under 10 nM; in [3] it was 4240 nM; in test [4], 16.2 nM; in test [5] it was 41.5 nM; in [6] it was 16.9 nM. Also, the GI50 was 3.66 µM in [7], 14.1 nM in test [8], 944 nM in test [9] and under 12.9 nM in test [10]. The TGI in test [1] is over 100 µM; in test [2], under 0.0189 µM; in test [3] it was over 100 µM; in test [4] it was 0.0637 µM; in [5] it was over 100 µM; in [6] it was 20.5 µM. Further, the TGI in test [7], in test [8], in test [9] and in test [10] was over 100 µM throughout.
With `Oc1cc(-n2cccn2)c(O)cc1-n1cccn1`, the TGI is 61.8 µM in test [1]; over 92.2 µM in test [2]; 49.6 µM in [3]; 58 µM in test [4]; 37.8 µM in test [5]; over 75.9 µM in [6]. The TGI in test [7] was 64.9 µM; in test [8], over 100 µM; in test [9], 39.8 µM; in [10], 42.9 µM.
Regarding `CC1c2ccccc2CCN1c1ccc(CO)c(Cl)c1` (centres undefined), the GI50 in test [1] was 24600 nM; in [2], 14.9 nM; in test [3], 34.6 nM; in test [4], 13800 nM; in [5], 15300 nM; in test [6], 48.8 nM. For the same compound, the GI50 is 17.1 µM in [7], 21900 nM in [8], 190 nM in [9] and 203 nM in test [10]. Besides, the TGI in test [1] was 77.7 µM; in test [2], 0.0888 µM; in test [3], 0.187 µM; in test [4], 27.1 µM; in test [5], over 57 µM; in test [6] it was 0.307 µM. For the same compound, the TGI in test [7] is 63.7 µM; in test [8], 70.7 µM; in [9] it was 16.6 µM; in test [10], over 100 µM.
Consider `N/C(=N\OC(=O)c1ccccc1)C(Cc1ccccc1)C(=O)NOC(=O)c1ccccc1` (centres undefined), for which the GI50 was 2210 nM in [1]; 11000 nM in [2]; 2120 nM in [3]; 2720 nM in test [4]; 3390 nM in test [5]; 430 nM in test [6]. The GI50 in [7] is 7.76 µM; in [8], 952 nM; in test [9], 1840 nM; in test [10] it was 3020 nM. Besides, the TGI was determined as 5.85 µM in test [1]; 23.2 µM in test [2]; 3.76 µM in [3]; 9.03 µM in test [4]; 25.4 µM in test [5]; 2.09 µM in test [6]. The TGI in [7] was found to be 22.6 µM; in test [8], 3.27 µM; in test [9], 3.63 µM; in test [10] it was 13.8 µM.
Consider `COc1cc(/C=C/c2ccc3c(Br)cc(Br)c(O)c3n2)ccc1O`, for which the GI50 in test [1] was 606 nM; in test [2], 9430 nM; in test [3], 3840 nM; in test [4] it was 1470 nM; in [5] it was 2000 nM; in [6], 1540 nM. The GI50 was 3.16 µM in [7], 2010 nM in test [8], 4770 nM in test [9] and 2240 nM in test [10]. The TGI in test [1] came to 7.04 µM; in test [2] it was 21.8 µM; in [3] it was 15.5 µM; in test [4], 10.3 µM; in test [5] it was 17.9 µM; in test [6], 13.6 µM. Further, the TGI in test [7] is 12.9 µM; in test [8] it was 14.6 µM; in [9], 20.8 µM; in test [10], 13 µM.
Consider `Clc1ccc(C2ON=C(c3ccccc3)N2C23CC4CC(CC(C4)C2)C3)cc1` (centres undefined), for which the TGI in test [1], in test [2], in test [3], in test [4], in test [5] and in test [6] was over 10 µM throughout. For the same compound, the TGI in test [7], in test [8], in test [9] and in test [10] was over 10 µM throughout.
Turning to `COc1ccc(C(=O)/C=C/c2ccc(OCC#N)cc2)cc1`, the TGI in [1] is 77.1 µM; in test [2], 96.3 µM; in [3], over 100 µM; in test [4], 28.4 µM; in test [5], 39.2 µM; in test [6], over 10 µM. In addition, the TGI in [7] was 32.9 µM; in [8] it was over 100 µM; in [9] it was 67.4 µM; in test [10], 33.6 µM.
Consider `Cc1[nH]nc(-c2ccon2)c1N=O`, for which the TGI in test [1] is 6.18 µM; in [2], over 100 µM; in test [3], 32.9 µM; in test [4] it was 34.3 µM; in test [5] it was 42 µM; in test [6], 70.1 µM. Moreover, the TGI in test [7] came to 43.1 µM; in test [8] it was 80.7 µM; in test [9] it was 29 µM; in test [10], 49.1 µM.
In the case of `CN1CCc2nc3sc(C(N)=O)c(N)c3c(-c3cccs3)c2C1`, the GI50 in test [1] was 2890 nM; in test [2], 2580 nM; in [3] it was 3320 nM; in [4], 1430 nM; in [5], 2690 nM; in test [6], 5160 nM. Further, the GI50 in test [7] is 2.91 µM; in test [8] it was 3070 nM; in test [9], 3160 nM; in [10], 4020 nM. Further, the TGI in test [1] is 48.4 µM; in [2], 7.27 µM; in test [3], 13.1 µM; in test [4], 5.24 µM; in [5], over 100 µM; in test [6], over 100 µM. In addition, the TGI is 9.59 µM in test [7], 21.7 µM in test [8], 9.16 µM in test [9] and over 100 µM in test [10].
For `COc1cc2c(cc1F)C(c1ccccc1Cl)=Nc1c(n[nH]c1C)N2`, the GI50 was 5000 nM in [1]; 2060 nM in test [2]; 4020 nM in [3]; 328 nM in [4]; 1380 nM in test [5]; 1540 nM in [6]. Also, the GI50 in test [7] is 5.66 µM; in [8], 214 nM; in [9], 1340 nM; in test [10], 486 nM. For the same compound, the TGI came out at 38.6 µM in test [1]; 9.97 µM in test [2]; 18.3 µM in test [3]; 6.51 µM in [4]; 18.3 µM in test [5]; 18 µM in test [6]. Moreover, the TGI was found to be 20.4 µM in [7], 0.838 µM in test [8], 13.5 µM in test [9] and 20 µM in [10].
Take `CC1C=CC(OC(=O)C(C)(O)CCC(O)(C(=O)OC2CC(O)C(C(C)C)CC2(C)O)C(C)C)(C(C)C)CC1` (centres undefined): the GI50 was 193 nM in test [1]; 844 nM in test [2]; 754 nM in [3]; 377 nM in test [4]; 149 nM in test [5]; 232 nM in [6]. The GI50 in test [7] was 2.1 µM; in test [8] it was 792 nM; in test [9], 403 nM; in test [10], 604 nM. Besides, the TGI in test [1] worked out at 0.861 µM; in test [2], 2.03 µM; in [3], 1.5 µM; in [4], 1.03 µM; in test [5], 0.602 µM; in test [6] it was 0.64 µM. Further, the TGI in [7] is 8.27 µM; in test [8] it was 4.84 µM; in [9], 1.86 µM; in test [10] it was 1.41 µM.
As for `CCc1c(C)nc2sc3c(N)ncnc3c2c1C`, the GI50 in [1], in test [2], in [3], in test [4], in test [5] and in test [6] was over 25000 nM throughout. Also, the GI50 was over 25 µM in test [7], over 25000 nM in [8], over 25000 nM in test [9] and over 25000 nM in [10]. The TGI in test [1], in test [2], in test [3], in test [4], in test [5] and in test [6] was over 25 µM in each case. Moreover, the TGI in test [7], in test [8], in test [9] and in test [10] was over 25 µM throughout.
With `COc1ccc(Nc2ccnc(N3CCN(c4ccnc5cc(Cl)ccc45)CC3)n2)cc1`, the GI50 in [1] was 1560 nM; in [2], 342 nM; in test [3], 2180 nM; in test [4] it was 579 nM; in [5], 1670 nM; in test [6], 696 nM. Also, the GI50 in test [7] is 1.21 µM; in test [8] it was 1400 nM; in test [9], 320 nM; in test [10], 739 nM. Moreover, the TGI in test [1] is 4.37 µM; in test [2] it was 4.17 µM; in [3], 7.95 µM; in test [4], 1.87 µM; in [5], over 100 µM; in test [7] it was 4.89 µM. Further, the values for the TGI in test [8], in [9] and in test [10] were 9.06 µM, 4.5 µM and over 73.1 µM, respectively.
For `C[C@@H]1Cc2cc(O)ccc2[C@H]2CC[C@]3(C)/C(=C/COCCN(C)C)CC[C@H]3[C@H]12` (tested in a mixture with another compound), the GI50 in test [1] was 83.3 nM; in [2] it was 534 nM; in [3] it was 209 nM; in test [4], 205 nM; in test [5], 111 nM; in [6], 379 nM. The GI50 in test [7] is 0.456 µM; in test [8] it was 82.2 nM; in test [9], 216 nM; in test [10], 214 nM. Besides, the TGI is 0.487 µM in [1]; 1.59 µM in [2]; 0.461 µM in [3]; 0.453 µM in test [4]; 0.789 µM in test [5]; 1.21 µM in test [6]. The TGI in test [7] stood at 1.46 µM; in test [8] it was 0.436 µM; in test [9] it was 0.872 µM; in test [10], 0.482 µM.
For the compound `CC(C)C[C@H](NC(=O)CCn1ccc2ccccc2c1=O)B(O)O`, the GI50 is 1280 nM in [1]; 1220 nM in test [2]; 2930 nM in test [3]; 4300 nM in test [4]; 11200 nM in test [5]; 12300 nM in test [6]. Further, the GI50 in test [7] was 3.27 µM; in test [8], 3630 nM; in test [9], 10900 nM; in [10], 3000 nM. Moreover, the TGI was 5.94 µM in test [1]; 4.79 µM in test [2]; 9.8 µM in test [3]; 19 µM in test [4]; 55.4 µM in test [5]; over 100 µM in test [6]. Also, the TGI was over 100 µM in test [7], 48.7 µM in [8], 67.1 µM in test [9] and 12 µM in [10].
Regarding `C=CCc1cc(Nc2c3ccc(Cl)cc3nc3ccc(OC)cc23)cc(CN(CC)CC)c1O`, the GI50 in [1] was 1240 nM; in test [2], 1680 nM; in test [3] it was 1970 nM; in [4], 1240 nM; in test [5], 2030 nM; in test [6], 2690 nM. Moreover, the GI50 in test [7] was 3.37 µM; in test [8], 3040 nM; in test [9] it was 1110 nM; in [10], 1970 nM. In addition, the TGI amounted to 4.92 µM in test [1]; 5.84 µM in test [2]; 11.1 µM in test [3]; 2.49 µM in [4]; 12.1 µM in test [5]; 21.1 µM in [6]. Also, the TGI in test [7] came out at 18.1 µM; in [8], 14.3 µM; in test [9] it was 4.04 µM; in [10] it was 11.4 µM.
